Results reported in US6914064B2, “1,4-Disubstituted piperazine derivatives useful as uro-selective α1-adrenoceptor blockers” (Ranbaxy Laboratories Limited, priority 2000, dated 2005).
Where a name gives a salt, the structure may show the parent alone. Read-outs that look alike come from different tables or passages of the source.

Assays:
α1A adrenoceptor = target: T1, α1A adrenoceptor (Rattus norvegicus, UniProt P43140); assay: Receptor binding assay, displacement of [3H]prazosin, rat submaxillary membranes; conditions: for Selectivity α1B/α1A: ratio of Ki α1B (rat liver) / α1A (rat submaxillary)
T1 construct: from tissue; host or cells: rat submaxillary gland membranes
T1 sequence (P43140 1-466): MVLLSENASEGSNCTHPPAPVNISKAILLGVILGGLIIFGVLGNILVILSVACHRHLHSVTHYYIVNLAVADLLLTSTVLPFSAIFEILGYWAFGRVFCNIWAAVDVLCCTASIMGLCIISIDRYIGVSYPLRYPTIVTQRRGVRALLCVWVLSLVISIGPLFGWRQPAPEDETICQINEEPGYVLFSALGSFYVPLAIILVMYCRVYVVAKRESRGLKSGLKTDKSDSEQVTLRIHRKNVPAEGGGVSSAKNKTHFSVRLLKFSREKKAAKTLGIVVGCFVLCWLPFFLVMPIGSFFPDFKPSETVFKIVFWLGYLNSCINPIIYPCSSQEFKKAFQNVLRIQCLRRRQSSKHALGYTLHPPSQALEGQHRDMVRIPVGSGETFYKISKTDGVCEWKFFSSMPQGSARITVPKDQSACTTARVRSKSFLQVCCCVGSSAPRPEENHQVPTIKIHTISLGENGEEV
Method: Receptor binding assays were performed using native α-adrenoceptors.
(§1) Submaxillary glands were isolated immediately after sacrifice. The liver was perfused with buffer (Tris HCl 50 mM, NaCl 100 mM, 10 mM EDTA pH 7.4). The tissues were homogenised in 10 volumes of buffer (Tris HCl 50 mM, NaCl 100 mM, EDTA 10 mM, pH 7.4). The homogenate was filtered through two layers of wet gauze and filtrate was centrifuged at 500 g for 10 min. The supernatant was subsequently centrifuged at 40,000 g for 45 min. The pellet thus obtained was resuspended in the same volume of assay buffer (Tris HCl 50 mM, EDTA 5 mM, pH 7.4) and were stored at −70° C. until the time of assay.
(§2) The membrane homogenates (150-250 μg protein) were incubated in 250 μl of assay buffer (Tris HCl 50 mM, EDTA 5 mM, pH 7.4) at 24-25° C. for 1 h. Non-specific binding was determined in the presence of 300 nM prazosin. The incubation was terminated by vacuum filtration over GF/B fibre filters. The filters were then washed with ice cold 50 mM Tris HCl buffer (pH 7.4). The filtermats were dried and bound radioactivity retained on filters was counted.The IC50 & Kd were estimated by using the non-linear curve fitting program using G Pad Prism software.

α1B adrenoceptor = target: T2, α1B adrenoceptor (Rattus norvegicus, UniProt P15823); assay: Receptor binding assay, displacement of [3H]prazosin, rat liver membranes
T2 construct: from tissue; host or cells: rat liver membranes
T2 sequence (P15823 1-515): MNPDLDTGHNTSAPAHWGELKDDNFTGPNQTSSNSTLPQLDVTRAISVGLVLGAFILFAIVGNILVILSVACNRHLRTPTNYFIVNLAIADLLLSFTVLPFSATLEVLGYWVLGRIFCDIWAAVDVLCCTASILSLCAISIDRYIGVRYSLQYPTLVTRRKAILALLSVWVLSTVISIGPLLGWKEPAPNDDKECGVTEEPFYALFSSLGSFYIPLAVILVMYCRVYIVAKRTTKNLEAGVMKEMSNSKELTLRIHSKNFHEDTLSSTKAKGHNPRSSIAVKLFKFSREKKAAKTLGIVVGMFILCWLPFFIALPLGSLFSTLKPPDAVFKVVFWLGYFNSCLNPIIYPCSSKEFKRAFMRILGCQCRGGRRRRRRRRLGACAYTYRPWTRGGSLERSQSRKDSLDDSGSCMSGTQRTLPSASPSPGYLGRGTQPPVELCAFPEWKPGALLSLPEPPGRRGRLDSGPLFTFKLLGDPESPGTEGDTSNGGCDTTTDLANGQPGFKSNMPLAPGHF
Method: Receptor binding assays were performed using native α-adrenoceptors. The affinity of different compounds for α1A and α1B adrenoceptor subtypes was evaluated by studying their ability to displace specific [^3H]prazosin binding from the membranes of rat submaxillary and liver respectively (Michel et al, Br J Pharmacol, 98, 883-889 (1989)). The binding assays were performed according to U'Prichard et al. (Eur J Pharmacol, 50:87-89 (1978)) with minor modifications.
as §1
as §2, with “software. The value of inhibition constant Ki was calculated from competitive binding studies by using Cheng & Prusoff equation (Cheng & Prusoff, Biochem Pharmacol, 1973,22: 3099-3108), Ki=IC50/(1+L/Kd) where L is the concentration of [^3H]prazosin used in the particular experiment (Table I).” for “software.”

[1] = [3H]prazosin displacement, rat submaxillary membranes, read-out: α1A (Rat submaxillary) Ki
[2] = [3H]prazosin displacement, rat liver membranes, read-out: α1B (Rat liver) Ki

Ki (α1A adrenoceptor; [1]) [nM]	Selectivity α1B/α1A (α1A adrenoceptor)	Ki (α1B adrenoceptor; [2]) [nM]	melting point [°C]	Structure (SMILES)	Ki (α1A adrenoceptor) [nM]	Ki (α1B adrenoceptor) [nM]
> 500	1	> 500	259.5 to 261	Cl.O=C1C2CC=CCC2C(=O)N1CCCN1CCN(c2ccc([N+](=O)[O-])cc2)CC1 (stereo not drawn) [Compound 16, 2-[3-{4-(4-Nitrophenyl)piperazin-1-yl}propyl]-3a,4,7,7a-tetrahydro-1H-isoindole-1,3(2H)-dione hydrochloride]		
48	13	611	184 to 185	COc1ccccc1N1CCN(CC(C)CN2C(=O)C3CC=CCC3C2=O)CC1.Cl (stereo not drawn) [Compound 30, 2-[3-{4-(2-Methoxyphenyl)piperazin-1-yl}-2-methylpropyl]-3a,4,7,7a-tetrahydro-1H-isoindole-1,3(2H)-dione hydrochloride]		
83	4.8	398	221 to 223	Cl.O=C1C2CC=CCC2C(=O)N1CCCN1CCN(c2cccc(Cl)c2)CC1 (stereo not drawn) [Compound 02, 2-[3-{4-(3-Chlorophenyl)piperazin-1-yl}propyl]-3a,4,7,7a-tetrahydro-1H-isoindole-1,3(2H)-dione hydrochloride]		
48	0.78	37	248 to 249	Cc1ccc(N2CCN(CCCN3C(=O)C4CC=CCC4C3=O)CC2)cc1Cl.Cl (stereo not drawn) [Compound 17, 2-[3-{4-(3-Chloro-4-methylphenyl)piperazin-1-yl}propyl]-3a,4,7,7a-tetrahydro-1H-isoindole-1,3(2H)-dione hydrochloride]		
8.66	5.9	51.3	231 to 232	Cc1ccc(Cl)cc1N1CCN(CCCN2C(=O)C3CC=CCC3C2=O)CC1.Cl (stereo not drawn) [Compound 12, 2-[3-{4-(2-Methyl-5-chlorophenyl)piperazin-1-yl}propyl]-3a,4,7,7a-tetrahydro-1H-isoindole-1,3(2H)-dione hydrochloride]		
38	13	> 500	193 to 195	COc1ccc(OC)c(N2CCN(CCCN3C(=O)C4CC=CCC4C3=O)CC2)c1.Cl (stereo not drawn) [Compound 26, 2-[3-{4-(2,5-Dimethoxyphenyl)piperazin-1-yl}propyl]-3a,4,7,7a-tetrahydro-1H-isoindole-1,3(2H)-dione hydrochloride]		
5.26	15	81		O=C1[C@H]2CC=CC[C@H]2C(=O)N1CCCN1CCN(C(c2ccc(F)cc2)c2ccc(F)cc2)CC1 [Compound 19, 2-[3-{4-(Bis-4-fluorophenyl)methylpiperazin-1-yl}propyl]-3a,4,7,7a-tetrahydro-1H-isoindole-1,3(2H)-dione hydrochloride]		
> 500	1	> 500	275 to 278	Cl.O=C1C2CC=CCC2C(=O)N1CCCN1CCN(Cc2ccccc2)CC1 (stereo not drawn) [Compound 14, 2-[3-{4-(Benzyl)piperazin-1-yl}propyl]-3a,4,7,7a-tetrahydro-1H-isoindole-1,3(2H)-dione hydrochloride]		
			186 to 187	Cc1ccccc1N1CCN(CCCN2C(=O)[C@H]3CC=CC[C@H]3C2=O)CC1 (as salt: hydrochloride) [Compound 03, 2-[3-{4-(2-Methylphenyl)piperazin-1-yl}propyl]-3a,4,7,7a-tetrahydro-1H-isoindole-1,3(2H)-dione hydrochlolide]		
> 500	1	> 500	264 to 265	CC(C)(C)c1ccc(N2CCN(CCCN3C(=O)C4CC=CCC4C3=O)CC2)cc1.Cl (stereo not drawn) [Compound 27, 2-[3-{4-(4-tert-Butylphenyl)piperazin-1-yl}propyl]-3a,4,7,7a-tetrahydro-1H-isoindole-1,3(2H)-dione hydrochloride]		
183	2.7	> 500	194 to 196	Cc1ccc(N2CCN(CCCN3C(=O)C4CC=CCC4C3=O)CC2)cc1C.Cl (stereo not drawn) [Compound 07, 2-[3-{4-(3,4-Dimethylphenyl)piperazin-1-yl}propyl]-3a,4,7,7a-tetrahydro-1H-isoindole-1,3(2H)-dione hydrochloride]		
> 500	1	> 500	267 to 268	COc1cccc(O)c1N1CCN(CCCN2C(=O)C3CC=CCC3C2=O)CC1.Cl (stereo not drawn) [Compound 28, 2-[3-{4-(2-Methoxy-6-hydroxyphenyl)piperazin-1-yl}propyl]-3a,4,7,7a-tetrahydro-1H-isoindole-1,3(2H)-dione hydrochloride]		
32.5	5	168		Cc1ccccc1N1CCN(CCCN2C(=O)[C@H]3CC=CC[C@H]3C2=O)CC1 [Compound 03, 2-[3-{4-(2-Methylphenyl)piperazin-1-yl}propyl]-3a,4,7,7a-tetrahydro-1H-isoindole-1,3(2H)-dione hydrochlolide]		
80	4.5	363	228 to 230	Cl.O=C1C2CC=CCC2C(=O)N1CCCN1CCN(c2ccc(F)cc2)CC1 (stereo not drawn) [Compound 04, 2-[3-{4-(4-Fluorophenyl)piperazin-1-yl}propyl]-3a,4,7,7a-tetrahydro-1H-isoindole-1,3(2H)-dione hydrochloride]		
62	2.7	165	218.2 to 219	Cl.O=C1C2CC=CCC2C(=O)N1CCCN1CCN(c2ccc(F)cc2F)CC1 (stereo not drawn) [Compound 10, 2-[3-{4-(2,4-Difluorophenyl)piperazin-1-yl}propyl]-3a,4,7,7a-tetrahydro-1H-isoindole-1,3(2H)-dione hydrochloride]		
			235 to 236	O=C1[C@H]2CC=CC[C@H]2C(=O)N1CCCN1CCN(C(c2ccc(F)cc2)c2ccc(F)cc2)CC1 (as salt: hydrochloride) [Compound 19, 2-[3-{4-(Bis-4-fluorophenyl)methylpiperazin-1-yl}propyl]-3a,4,7,7a-tetrahydro-1H-isoindole-1,3(2H)-dione hydrochloride]		

Structure (SMILES)	Ki (α1A adrenoceptor; [1]) [nM]	Selectivity α1B/α1A (α1A adrenoceptor)	Ki (α1B adrenoceptor; [2]) [nM]	melting point [°C]	Ki (α1A adrenoceptor) [nM]	Ki (α1B adrenoceptor) [nM]
Cl.O=C1C2CC=CCC2C(=O)N1CCCN1CCN(c2cccc(C(F)(F)F)c2)CC1 (stereo not drawn) [Compound 05, 2-[3-{4-(3-Trifluoromethylphenyl)piperazin-1-yl}propyl]-3a,4,7,7a-tetrahydro-1H-isoindole-1,3(2H)-dione hydrochloride]		2		215 to 217	259	> 500
